Laboratory results reported in ChEMBL document CHEMBL1146845, “Structural determinants for N1/N7 cyclization of nicotinamide hypoxanthine 5'-dinucleotide (NHD+) derivatives by ADP-ribosyl cyclase from aplysia californica: Ca2+-mobilizing activity of 8-substituted cyclic inosine 5'-diphosphoribose analogues in T-lymphocytes” (J Med Chem, 2006).
Calls of active or inactive are those of the source. The rule behind the calls is not given here.

Test system: Jurkat
Assay: Induction of calcium ion mobilization in intact Jurkat cells
Format: functional, cell-based
Settings: Homo sapiens

Row | Structure (SMILES) | Activity
1 | O=c1c2nc(-c3ccccc3)n3c2ncn1[C@@H]1O[C@H](COP(=O)(O)OP(=O)(O)OC[C@H]2O[C@@H]3[C@H](O)[C@@H]2O)[C@@H](O)[C@H]1O | Active
2 | O=c1c2nc(I)n3c2ncn1[C@@H]1O[C@H](COP(=O)(O)OP(=O)(O)OC[C@H]2O[C@@H]3[C@H](O)[C@@H]2O)[C@@H](O)[C@H]1O | Active
